From PMC11555261, “Targeting USP11 regulation by a novel lithium-organic coordination compound improves neuropathologies and cognitive functions in Alzheimer transgenic mice” (EMBO Molecular Medicine, 2024)

Target: T1, USP11 (recombinant USP11 protein) (Homo sapiens, UniProt P51784)
T1 construct: commercial recombinant human protein from Sf9 insect cells; His tag implied by RED-tris-NTA labelling
Test: microscale thermophoresis
Format: binding

T1 sequence (P51784 whole entry): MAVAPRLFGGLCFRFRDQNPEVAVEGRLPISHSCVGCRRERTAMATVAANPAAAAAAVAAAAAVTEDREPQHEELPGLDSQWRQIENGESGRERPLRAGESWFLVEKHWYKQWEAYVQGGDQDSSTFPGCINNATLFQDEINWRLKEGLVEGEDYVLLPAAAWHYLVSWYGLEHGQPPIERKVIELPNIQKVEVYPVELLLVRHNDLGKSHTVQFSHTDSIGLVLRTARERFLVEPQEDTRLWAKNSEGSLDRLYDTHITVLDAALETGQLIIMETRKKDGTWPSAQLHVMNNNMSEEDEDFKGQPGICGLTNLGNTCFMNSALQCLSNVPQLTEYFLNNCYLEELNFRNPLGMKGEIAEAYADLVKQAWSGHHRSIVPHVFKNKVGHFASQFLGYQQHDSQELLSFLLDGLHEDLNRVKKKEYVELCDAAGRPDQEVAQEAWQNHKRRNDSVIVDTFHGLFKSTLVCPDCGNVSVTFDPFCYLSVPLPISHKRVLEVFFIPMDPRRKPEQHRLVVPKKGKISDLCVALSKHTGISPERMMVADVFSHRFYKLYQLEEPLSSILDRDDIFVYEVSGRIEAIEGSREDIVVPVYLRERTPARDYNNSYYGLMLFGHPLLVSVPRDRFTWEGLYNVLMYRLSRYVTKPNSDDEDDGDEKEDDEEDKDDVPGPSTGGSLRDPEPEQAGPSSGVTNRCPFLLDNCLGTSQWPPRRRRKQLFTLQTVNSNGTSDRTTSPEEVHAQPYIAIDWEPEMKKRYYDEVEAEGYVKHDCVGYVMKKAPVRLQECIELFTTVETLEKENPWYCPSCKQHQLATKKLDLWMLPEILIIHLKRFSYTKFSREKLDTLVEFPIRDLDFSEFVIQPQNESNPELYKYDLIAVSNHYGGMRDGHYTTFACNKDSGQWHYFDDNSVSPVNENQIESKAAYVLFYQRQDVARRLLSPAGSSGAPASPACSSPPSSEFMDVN

O=C(O)[C@@H]1CCCN1 [IsoLiPro]
Kd: 43.4 µM
